{"source": "paper PMC5584250", "about": "“Identification of deubiquitinase targets of isothiocyanates using SILAC-assisted quantitative mass spectrometry” (Oncotarget, 2017)", "key": {"VCPIP1": {"biological_target": "T1, VCPIP1 (Homo sapiens, UniProt Q96JH7)", "T1 sequence (Q96JH7 1-1222)": "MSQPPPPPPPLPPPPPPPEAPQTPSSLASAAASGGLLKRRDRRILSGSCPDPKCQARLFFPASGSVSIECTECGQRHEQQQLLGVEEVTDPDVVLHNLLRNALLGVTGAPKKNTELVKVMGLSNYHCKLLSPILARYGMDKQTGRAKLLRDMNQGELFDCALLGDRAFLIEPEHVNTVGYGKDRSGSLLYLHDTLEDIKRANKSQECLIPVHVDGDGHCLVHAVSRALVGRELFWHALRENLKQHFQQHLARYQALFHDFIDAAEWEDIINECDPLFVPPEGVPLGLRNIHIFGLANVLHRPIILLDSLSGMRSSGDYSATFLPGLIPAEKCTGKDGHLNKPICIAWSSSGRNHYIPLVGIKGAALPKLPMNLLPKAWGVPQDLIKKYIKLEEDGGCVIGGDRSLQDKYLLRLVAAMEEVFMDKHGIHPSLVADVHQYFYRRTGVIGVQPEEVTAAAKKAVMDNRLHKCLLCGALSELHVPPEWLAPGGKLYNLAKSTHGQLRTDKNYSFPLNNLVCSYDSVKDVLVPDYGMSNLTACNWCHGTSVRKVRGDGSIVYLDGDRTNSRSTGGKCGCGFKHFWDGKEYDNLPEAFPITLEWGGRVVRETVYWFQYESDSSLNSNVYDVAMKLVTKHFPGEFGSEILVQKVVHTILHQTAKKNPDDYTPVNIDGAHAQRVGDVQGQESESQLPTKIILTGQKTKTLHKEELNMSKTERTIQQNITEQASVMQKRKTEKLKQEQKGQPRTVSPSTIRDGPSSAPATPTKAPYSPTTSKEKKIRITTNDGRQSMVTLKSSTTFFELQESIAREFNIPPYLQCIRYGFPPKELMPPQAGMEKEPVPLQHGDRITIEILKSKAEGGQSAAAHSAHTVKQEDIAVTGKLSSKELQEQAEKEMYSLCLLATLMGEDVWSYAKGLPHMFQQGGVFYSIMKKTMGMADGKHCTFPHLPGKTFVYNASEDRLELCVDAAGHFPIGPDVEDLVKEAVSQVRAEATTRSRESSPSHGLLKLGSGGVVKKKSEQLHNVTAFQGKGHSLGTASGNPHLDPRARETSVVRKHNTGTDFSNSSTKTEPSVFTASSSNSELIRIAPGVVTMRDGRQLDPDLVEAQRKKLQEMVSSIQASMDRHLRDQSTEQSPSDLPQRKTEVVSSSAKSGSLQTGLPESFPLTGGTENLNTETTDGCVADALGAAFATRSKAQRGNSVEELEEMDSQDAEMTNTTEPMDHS", "assay": "SILAC-MS competitive activity profiling (biotin-Ub-PA/VME) in HeLa lysate, […] PEITC", "format": "cell-based"}, "USP1": {"biological_target": "T2, USP1 (Homo sapiens, UniProt O94782)", "T2 construct": "recombinant human His6-USP1/UAF1 complex; with UAF1", "T2 sequence (O94782 whole entry)": "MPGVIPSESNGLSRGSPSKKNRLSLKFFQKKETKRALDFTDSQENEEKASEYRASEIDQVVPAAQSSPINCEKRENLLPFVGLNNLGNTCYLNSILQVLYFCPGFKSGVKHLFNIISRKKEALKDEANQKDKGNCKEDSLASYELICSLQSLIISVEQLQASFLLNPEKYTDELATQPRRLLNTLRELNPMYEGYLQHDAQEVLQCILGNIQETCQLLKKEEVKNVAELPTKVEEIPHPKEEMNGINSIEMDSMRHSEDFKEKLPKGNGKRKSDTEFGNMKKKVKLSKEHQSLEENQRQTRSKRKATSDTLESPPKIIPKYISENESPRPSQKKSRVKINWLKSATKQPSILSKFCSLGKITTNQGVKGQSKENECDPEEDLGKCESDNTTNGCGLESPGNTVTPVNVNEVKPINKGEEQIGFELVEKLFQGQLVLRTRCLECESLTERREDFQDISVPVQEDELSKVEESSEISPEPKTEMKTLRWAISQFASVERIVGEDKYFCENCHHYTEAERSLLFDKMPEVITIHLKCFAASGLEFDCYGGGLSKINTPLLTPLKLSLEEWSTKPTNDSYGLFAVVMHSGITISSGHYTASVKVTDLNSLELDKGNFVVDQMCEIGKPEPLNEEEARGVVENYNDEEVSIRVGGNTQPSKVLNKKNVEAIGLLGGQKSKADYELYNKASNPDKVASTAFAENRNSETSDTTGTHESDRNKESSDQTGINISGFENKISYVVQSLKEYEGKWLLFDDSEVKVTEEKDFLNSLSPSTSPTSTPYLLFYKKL", "T2 sequence (Q8TAF3 whole entry partner)": "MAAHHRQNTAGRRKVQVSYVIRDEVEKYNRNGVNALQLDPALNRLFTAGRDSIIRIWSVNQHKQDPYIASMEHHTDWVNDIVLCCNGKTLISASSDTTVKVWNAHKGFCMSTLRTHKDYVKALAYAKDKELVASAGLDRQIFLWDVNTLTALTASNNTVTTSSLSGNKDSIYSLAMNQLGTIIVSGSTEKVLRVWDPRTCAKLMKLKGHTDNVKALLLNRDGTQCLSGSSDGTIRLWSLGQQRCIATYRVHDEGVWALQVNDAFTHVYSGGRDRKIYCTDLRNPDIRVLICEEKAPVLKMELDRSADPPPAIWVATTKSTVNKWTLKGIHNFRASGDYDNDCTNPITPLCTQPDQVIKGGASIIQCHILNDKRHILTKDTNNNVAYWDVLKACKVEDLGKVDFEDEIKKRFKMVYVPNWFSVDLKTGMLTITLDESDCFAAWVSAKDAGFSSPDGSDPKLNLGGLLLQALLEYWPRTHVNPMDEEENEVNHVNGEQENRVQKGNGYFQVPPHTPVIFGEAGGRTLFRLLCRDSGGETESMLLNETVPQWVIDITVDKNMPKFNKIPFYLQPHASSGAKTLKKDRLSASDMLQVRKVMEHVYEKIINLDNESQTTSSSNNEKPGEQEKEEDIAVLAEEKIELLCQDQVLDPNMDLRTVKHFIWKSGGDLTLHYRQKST", "assay": "K63-linked di-ubiquitin gel-based hydrolysis assay with purified USP1/UAF1; also probe labeling in cells and SILAC-MS", "format": "biochemical", "from_the_text": "K63-linked di-ubiquitin gel-based hydrolysis assay with purified USP1/UAF1; also probe labeling in cells and SILAC-MS on USP1 | hydrolysis of di-Ub by purified USP1 in complex with its activator UAF1 ... Dose dependent inhibition was observed"}, "USP3": {"biological_target": "T3, USP3 (Homo sapiens, UniProt Q9Y6I4)", "T3 sequence (Q9Y6I4 1-520)": "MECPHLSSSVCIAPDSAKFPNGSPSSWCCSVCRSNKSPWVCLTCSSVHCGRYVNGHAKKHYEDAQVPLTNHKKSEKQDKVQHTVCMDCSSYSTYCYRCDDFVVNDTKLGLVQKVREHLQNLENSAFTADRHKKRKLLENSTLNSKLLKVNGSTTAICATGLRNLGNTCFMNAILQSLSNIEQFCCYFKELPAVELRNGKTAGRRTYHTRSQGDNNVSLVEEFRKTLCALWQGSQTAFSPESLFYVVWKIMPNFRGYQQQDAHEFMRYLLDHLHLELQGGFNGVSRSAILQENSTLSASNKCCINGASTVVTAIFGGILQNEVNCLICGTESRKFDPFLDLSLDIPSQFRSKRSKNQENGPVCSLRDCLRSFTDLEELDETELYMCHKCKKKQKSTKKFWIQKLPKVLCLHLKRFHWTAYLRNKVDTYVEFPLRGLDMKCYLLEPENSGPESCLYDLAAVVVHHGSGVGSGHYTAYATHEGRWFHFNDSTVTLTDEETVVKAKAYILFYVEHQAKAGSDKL", "assay": "Biotin-Ub-PA/VME activity-probe labeling with immunoblot after treatment of HEK293T cells; SILAC-MS in HeLa lysate", "format": "cell-based"}, "USP16": {"biological_target": "USP16 (Homo sapiens, UniProt Q9Y5T5)", "sequence (Q9Y5T5 whole entry)": "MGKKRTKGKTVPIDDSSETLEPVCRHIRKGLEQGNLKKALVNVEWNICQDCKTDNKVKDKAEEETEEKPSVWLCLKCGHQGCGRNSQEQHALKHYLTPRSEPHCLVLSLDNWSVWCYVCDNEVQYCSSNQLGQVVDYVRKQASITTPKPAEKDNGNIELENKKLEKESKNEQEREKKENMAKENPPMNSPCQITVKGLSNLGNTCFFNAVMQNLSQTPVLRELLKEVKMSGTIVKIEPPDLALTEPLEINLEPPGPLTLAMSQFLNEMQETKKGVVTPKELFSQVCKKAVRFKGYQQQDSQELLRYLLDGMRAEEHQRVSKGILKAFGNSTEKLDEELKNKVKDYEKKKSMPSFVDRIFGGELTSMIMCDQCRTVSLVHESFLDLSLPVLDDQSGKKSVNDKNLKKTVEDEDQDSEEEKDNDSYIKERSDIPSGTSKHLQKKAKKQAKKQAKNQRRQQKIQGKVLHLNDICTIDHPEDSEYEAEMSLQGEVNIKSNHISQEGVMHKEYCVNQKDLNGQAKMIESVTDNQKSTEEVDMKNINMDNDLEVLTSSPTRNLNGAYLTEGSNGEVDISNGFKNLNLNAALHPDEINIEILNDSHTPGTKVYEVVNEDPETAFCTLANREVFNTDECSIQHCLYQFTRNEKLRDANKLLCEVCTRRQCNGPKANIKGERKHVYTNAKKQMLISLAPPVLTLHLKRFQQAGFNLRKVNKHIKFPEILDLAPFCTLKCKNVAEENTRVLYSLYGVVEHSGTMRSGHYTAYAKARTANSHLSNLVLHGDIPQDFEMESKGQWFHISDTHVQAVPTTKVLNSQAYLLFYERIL", "assay": "SILAC-MS competitive activity profiling (biotin-Ub-PA/VME) in HeLa lysate, […] PEITC", "format": "cell-based"}, "UCH37": {"biological_target": "T4, UCH37 (Homo sapiens, UniProt Q9Y5K5)", "T4 construct": "gene UCHL5; Human UCH37 (isoform 1) with an N-terminal 6x histidine tag; with ADRM1 (RPN13)", "T4 sequence (Q16186 2-407)": "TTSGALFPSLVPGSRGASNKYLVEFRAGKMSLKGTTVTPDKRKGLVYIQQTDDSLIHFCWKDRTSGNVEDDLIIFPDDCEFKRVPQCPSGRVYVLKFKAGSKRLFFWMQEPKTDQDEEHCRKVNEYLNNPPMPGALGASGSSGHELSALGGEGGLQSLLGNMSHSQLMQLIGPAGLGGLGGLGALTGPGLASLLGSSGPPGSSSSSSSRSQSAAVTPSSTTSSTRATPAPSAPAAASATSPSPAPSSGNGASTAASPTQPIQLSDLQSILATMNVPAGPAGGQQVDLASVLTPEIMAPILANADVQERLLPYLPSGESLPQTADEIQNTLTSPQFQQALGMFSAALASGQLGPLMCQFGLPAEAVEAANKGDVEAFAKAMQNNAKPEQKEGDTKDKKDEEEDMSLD", "T4 sequence (Q9Y5K5 whole entry, canonical isoform)": "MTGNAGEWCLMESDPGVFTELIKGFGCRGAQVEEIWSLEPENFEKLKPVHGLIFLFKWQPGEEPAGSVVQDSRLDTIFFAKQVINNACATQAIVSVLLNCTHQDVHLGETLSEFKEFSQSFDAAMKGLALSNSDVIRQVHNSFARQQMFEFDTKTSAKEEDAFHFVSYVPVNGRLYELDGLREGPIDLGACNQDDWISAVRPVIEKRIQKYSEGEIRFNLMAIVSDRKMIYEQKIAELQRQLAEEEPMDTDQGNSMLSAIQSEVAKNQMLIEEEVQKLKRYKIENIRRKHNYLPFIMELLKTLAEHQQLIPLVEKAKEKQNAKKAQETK", "assay": "d5/d0-NEM differential cysteine labeling LC-MS/MS on recombinant UCH37/ADRM1; also Ub-Rho110MP hydrolysis inhibition and activity-probe competition", "format": "binding"}}}
{"smiles": "S=C=NCCc1ccccc1", "note": "[PEITC]", "values": [{"measurement": "SILAC-MS competitive activity profiling (biotin-Ub-PA/VME) in HeLa lysate, 75 μM", "setting": "VCPIP1", "value": "the inhibition of VCPIP1 by PEITC is the first report of inhibition of an OTU domain DUB"}, {"measurement": "K63-linked di-ubiquitin gel-based hydrolysis assay with purified USP1/UAF1; also", "setting": "USP1", "value": "hydrolysis of di-Ub by purified USP1 in complex with its activator UAF1 ... Dose dependent inhibition was observed"}, {"measurement": "Biotin-Ub-PA/VME activity-probe labeling with immunoblot after treatment of HEK2", "setting": "USP3", "value": "inhibition of USP3 by PEITC in living cells was confirmed by observing the molecular shift upon probe labeling"}, {"measurement": "SILAC-MS competitive activity profiling (biotin-Ub-PA/VME) in HeLa lysate, 75 μM", "setting": "USP16", "value": "USP1, USP3, USP16, USP48 and VCPIP1 were only identified in the absence of PEITC"}, {"measurement": "d5/d0-NEM differential cysteine labeling LC-MS/MS on recombinant UCH37/ADRM1; al", "setting": "UCH37", "value": "increase in d0-NEM labeling at Cys88, indicating that the active-site cysteine is the site of PEITC modification"}]}
